From patent US6218431A, “Substituted biphenyls” (Bayer Corporation, priority 1997, dated 2001)

These compounds were tested against T1, glucagon receptor (Homo sapiens, UniProt P47871) (assay: glucagon receptor binding assay (125I-glucagon, CHO-HGR membranes)). Details: 20 μM; reported where 20 μM did not reduce glucagon binding by 50%.
T1 construct: expressed in transfected cells; host or cells: Chinese Hamster Ovary cells (CHO-HGR), membranes
Protocol: The affinity for the glucagon receptor of compounds of the present invention is determined by the glucagon receptor binding assay. Membranes were prepared from Chinese Hamster Ovary cells expressing the glucagon receptor (CHO-HGR) by scraping the cells into hypotonic lysis buffer (10 mM Tris, pH 7.4, 2 mM EDTA, 5 mM MgCl2 and 1 mM PMSF) and subjecting the material to Polytron homogenization. Nuclei were removed by a 15-min 800×g centrifugation step conducted at 4° C. Membranes containing the receptor were collected by centrifugation at 15,000×gfor 15 min at 4° C. The membranes were washed once in lysis buffer and suspended in 0.25 M sucrose, 10 mM Tris, 5 mM EDTA, pH 7.4. The membranes were used in ligand binding studies as reported (Yoo-Warren, H., Willse, A. G., Hancock, N., Hull, J., McCaleb, M., and Livingston, J. Regulation of Rat Glucagon Receptor Expression. Biochem. Biophysical Res. Commun. 1994, 205, 347-353). In brief, 10 ug of membrane protein was incubated in 130 μl of binding buffer that consisted of 20 mM Tris, […], 1 mM EDTA, 1 mg/ml BSA, and 1 mg/ml bacitracin. The membrane suspension was placed in each well of a 96-well filtration plate (glass fiber type C, Millipore). […] Following the addition of test compound, 50 μl of ^125 I-glucagon (9 fmol) (NEN) was added to each well. Control wells contained membranes, 0.5% DMSO (solvent for test compounds), radiolabeled glucagon without and with excess native glucagon (1 μM) to establish nonspecific binding. The plates were incubated for 60 min at room temperature, and then filtered on a Mllipore vacuum apparatus. Following a wash step with ice-cold PBS/0.1% BSA, the filters were punched into test tubes, and the membrane bound radioactivity was determined.

T1 sequence (P47871 26-477): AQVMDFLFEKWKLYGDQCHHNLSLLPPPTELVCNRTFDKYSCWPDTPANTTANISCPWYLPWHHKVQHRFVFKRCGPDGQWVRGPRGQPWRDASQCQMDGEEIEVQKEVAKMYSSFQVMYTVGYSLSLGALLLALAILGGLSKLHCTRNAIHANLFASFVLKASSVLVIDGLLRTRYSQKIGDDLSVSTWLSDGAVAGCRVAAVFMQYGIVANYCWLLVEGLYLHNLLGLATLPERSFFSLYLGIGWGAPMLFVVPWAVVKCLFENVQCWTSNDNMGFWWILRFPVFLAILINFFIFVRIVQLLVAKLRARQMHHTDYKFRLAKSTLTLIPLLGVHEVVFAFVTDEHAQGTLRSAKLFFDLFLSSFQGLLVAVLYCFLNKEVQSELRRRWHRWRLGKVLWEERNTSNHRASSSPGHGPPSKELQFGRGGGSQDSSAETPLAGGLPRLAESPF

Structure (SMILES)	inhibition at 20 µM [%]	% Inhibition (20 μM) [%]
C=CCC(O)c1c(C(C)C)nc(C(C)C)c(CCCCC)c1-c1ccc(F)cc1 (racemic) [Example 116]	17	
C#Cc1ccccc1-c1c(C=CCCC)c(C(C)C)nc(C(C)C)c1CO [Example 156, 2,6-Diisopropyl-3-hydroxymethyl-4-(2-ethynylphenyl)-5-(pent-1-enyl)-pyridine]	26.1	
CC(C)=Cc1c(C)nc(C)c(CO)c1-c1ccccc1 [Example 2]	2.73	
CCCCN(CCCC)Cc1c(C(C)C)nc(C(C)C)c(CO)c1-c1ccc(F)cc1 [Example 80, 2,6-Diisopropyl-3-hydroxymethyl-4-(4fluorophenyl)-5-(dibutylamino)-methylpyridine]	38.8	
CCCC=Cc1c(C(C)C)nc(C(C)C)c(CO)c1-c1ccc(C(C)C)cc1 [Example 133, 2,6-Diisopropyl-3-hydroxymethyl-4-(4-isopropylphenyl)-5-(pent-1-enyl)pyridine]	35.5	
CCCCCc1c(C(C)C)nc(C(C)C)c(CNC)c1-c1ccc(F)cc1 [Example 120, 2,6-Diisopropyl-3-methylaminomethyl-4-(4-fluorophenyl)-5-pentyl-pyridine]	37	
CCCC=Cc1c(C(C)C)nc(C(C)C)c(CO)c1-c1cccc(Cl)c1 [Example 145, 2,6-Diisopropyl-3-hydroxymethyl-4-(3-chlorophenyl)-5-(pent-1-enyl)-pyridine]	41.4	
CCCCCc1c(C(C)C)nc(C(C)C)c(CO)c1-c1cccc(OC)c1 [Example 171, 2,6-Diisopropyl-3-hydroxymethyl-4-(3-methoxyphenyl)-5-pentylpyridine]		48.37
CC(C)c1nc(C(C)C)c(CN2CCCC2)c(-c2ccc(F)cc2)c1CO [Example 71, 2,6-Diisopropyl-3-hydroxymethyl-4-(4-fluorophenyl)-5-(pyrrolindino-methyl)pyridine]	46.3	
CCCC=Cc1c(CC)nc(CC)c(CO)c1-c1ccccc1 [Example 6]	34.2	
CCCCCc1c(C(C)(C)O)nc(C(C)C)c(CO)c1-c1ccc(F)cc1 [Example 219, 2-(1-Hydroxy-1-methylethyl)-3-pentyl-4-(4-fluorophenyl)-5-hydroxymethyl-6-isopropylpyridine]	5.11	
CCCCCc1c(C(C)C)nc(C(C)C)c(C(O)CCCC)c1-c1ccc(F)cc1 (racemic) [Example 115, (±)-2,6-Diisopropyl-3-(1-hydroxypentyl)-4-(4-fluorophenyl)-5pentyl-pyridine]	21.1	
CCCC=Cc1c(C(C)C)nc(C(C)C)c(CO)c1-c1ccccc1OCc1ccccc1 [Example 162, 2,6-Diisopropyl-3-hydroxymethyl-4-(2-benzyloxyphenyl)-5-(pent-1-enyl)pyridine]	13.9	
CCCC=Cc1c(C(C)C)nc(C(C)C)c(CO)c1-c1cccc(OCc2ccccc2)c1 [Example 152, 2,6-Diisopropyl-3-hydroxymethyl-4-(3-benzyloxyphenyl)-5-(pent-1-enyl)pyridine]	25.4	
CCCCCc1c(C(C)C)nc(C(C)C)c(CO)c1-c1ccc(F)c(C(C)O)c1 (stereo not shown) [Example 182, 2,6-Diisopropyl-3-hydroxymethyl-4-[4-fluoro-3-(1-hydroxyethyl)phenyl]-5-pentylpyridine]	49.1	

Same assay, conditions: 125I-glucagon; 60 min at room temperature; read-out: IC50

Structure (SMILES)	IC50 [nM]
CC(C)c1nc(C(C)C)c(C(C)O)c(-c2ccc(F)cc2)c1CSc1ccccc1 (racemic) [Example 113, (±)-2,6-Diisopropyl-3-(1-hydroxyethyl)-4-(4-fluorophenyl)-5-phenylthio-methylpyridine]	600
Cc1cccc(CCCc2c(C(C)C)nc(C(C)C)c(CO)c2-c2ccc(F)cc2)c1 [Example 85, 2,6-Diisopropyl-3-hydroxymethyl-4-(4-fluorophenyl)-5-[3-(3-methyl-5-phenyl)propyl]pyridine]	1500
Cc1ccccc1CCc1c(C(C)C)nc(C(C)C)c(CO)c1-c1ccc(F)cc1 [Example 43, 2,6-Diisopropyl-3-hydroxymethyl-4-(4-fluorophenyl)-5-[2-(2-methyl-phenyl)ethyl]pyridine]	1800
CCCCCc1c(CC(C)C)nc(C(C)C)c(CO)c1-c1ccc(F)cc1 [Example 228, 2-Isopropyl-3-hydroxymethyl-4-(4-fluorophenyl)-5-pentyl-6-(2-methylpropyl)pyridine]	2000
Cc1cc(C)cc(SCc2c(C(C)C)nc(C(C)C)c(CO)c2-c2ccc(F)cc2)c1 [Example 61, 2,6-Diisopropyl-3-hydroxymethyl-4-(4-fluorophenyl)-5-[(3,5dimethylphenyl)thio]methylpyridine]	3400
CC(C)c1nc(C(C)C)c(CSc2ccc3ccccc3c2)c(-c2ccc(F)cc2)c1CO [Example 52, 2,6Diisopropyl-3hydroxymethyl-4-(4-fluorophenyl)-5-(2-naphthyl-thio)methlpyridine]	20000
CCCCCc1c(CCc2ccccc2)nc(C(C)C)c(CO)c1-c1ccc(F)cc1 [Example 227, 2-Isopropyl-3-hydroxymethyl-4-(4-fluorophenyl)-5-pentyl-6-(2-phenylethyl)pyridine]	1300
CCCCC=Cc1c(C(C)C)nc(C(C)C)c(CO)c1-c1ccc(F)cc1 [Example 19, 2,6-Diisproyl-3-hyroxymethyl-4-(4-fluorophenyl)-5-(1-hexenyl)-pyridine]	700
CCCC=Cc1c(C(C)C)nc(C(C)C)c(CO)c1-c1ccc(F)c(F)c1 [Example 158, 2,6-diisopropyl-3-hydroxymethyl-4-(3,4-difluorophenyl)-5-(pent-1-enyl)pyridine]	1800
Cc1c(C(C)C)nc(C(C)C)c(CO)c1-c1ccc(F)cc1 [Example 81]	7500
CCCCCc1c(C(C)C)cc(C(C)C)c(CO)c1-c1ccc(F)cc1 [Example 190, 3,5-Diisopropyl-2-hydroxymethyl-6-pentyl-4'-fluoro-1,1'-biphenyl]	300
CC(C)c1nc(C(C)C)c(CSCc2ccccc2)c(-c2ccc(F)cc2)c1CO [Example 64]	1100
CC(C)c1nc(C(C)C)c(CCCCc2ccccc2)c(-c2ccc(F)cc2)c1CO [Example 39]	1300
CC(C)c1nc(C(C)C)c(CO)c(-c2ccc(F)cc2)c1C=C1CCCC1 [Example 31, 2,6-Diisopropyl-3-hydroxymethyl-4-(4-flurorphenyl)-5-(cyclopentyl-idenemethylene)pyridine]	2600
CC(C)c1nc(C(C)C)c(CSc2ccc(F)cc2)c(-c2ccc(F)cc2)c1CO [Example 49, 2,6-Diisopropyl-3-hydroxymethyl-4-(4-fluorophenyl)-5-[(4-fluoro-phenyl)thio]methylpyridine]	1100
COC(C)c1c(C(C)C)nc(C(C)C)c(CO)c1-c1ccc(F)cc1 (racemic) [Example 98, (±)-2,6-Diisopropyl-3-hydroxymethyl-4-(4-fluorophenyl)-5-(1-methoxyethyl)pyridine]	14000
CCCCCc1c(C(C)C)nc(C)c(CO)c1-c1ccc(F)cc1 [Example 198, 2-Isopropyl-3-pentyl-4-(4-fluorophenyl)-5-hydroxymethyl-6-methylpyridine]	17000
CCCCCc1c(C(C)C)nc(C(C)C)c(CO)c1-c1ccc(Cl)cc1 [Example 144, 2,6-Diisopropyl-3-hydroxymethyl-4-(4-chlorophenyl)-5-pentylpyridine]	800
CC(C)c1nc(C(C)C)c(CSc2cccc(C(F)(F)F)c2)c(-c2ccc(F)cc2)c1CO [Example 48, 2,6-Diisopropyl-3-hydroxymethyl-4-(4-fluorophenyl)-5-[((3-trifluoro-methyl)phenyl)thio]methylpyridine]	1800
CC(C)c1nc(C(C)C)c(C(C)O)c(-c2ccc(F)cc2)c1-c1ccccc1 (stereo not shown) [Example 233, 2,6-Diisopropyl-3-(1-hydroxyethyl)-4-(4-fluorophenyl)-5-phenylpyridine]	600
CCc1c(C(C)C)nc(C(C)C)c(CO)c1-c1ccc(F)cc1 [Example 26, 2,6Diisopropyl-3-hydroxymethyl-4-(4-fluorophenyl)-5-ethylpyridine]	1000
CCCC=Cc1c(C(C)C)nc(C(C)C)c(CO)c1-c1ccc(Cl)cc1 [Example 143, 2,6-Diisopropyl-3-hydroxymethyl-4-(4-chlorophenyl)-5-(pent-1-enyl)pyridine]	900
CC=Cc1c(C(C)C)nc(C(C)C)c(CO)c1-c1ccccc1 [Example 12]	1700
CCCCCc1c(C(C)O)nc(C(C)C)c(CO)c1-c1ccc(F)cc1 (stereo not shown) [Example 210, 2-(1-Hydroxyethyl)-3-pentyl-4-(4-fluorophenyl)-5-hydroxymethyl-6-isopropylpyridine]	18000
CCCc1c(C(C)C)nc(C(C)C)c(CO)c1-c1ccc(F)cc1O (single isomer, unassigned) [Example 239-E1, 2,6-Diisopropyl-3-(1-hydroxymethyl)-4-(4-fluoro-2-hydroxyphenyl)-5-propylpyridine]	2500
